Experiments:
Format in all cases: cell-based
[1] = system: BPDCN cell line PMDC05 (MYC-BPDCN); experiment: Cell survival rate (Cell Titer-Glo cell growth assay), PMDC05; conditions: PMDC05, 48 hours, FIG. 6
Description: (§1) The cell lines used were 4 lines: BPDCN cell lines CAL-1 (MYC^+BPDCN; Non Patent Literature 11; obtained from Nagasaki University) and PMDC05 (MYC-BPDCN; Non Patent Literature 12; obtained from Niigata University), a positive control plasma cell neoplasm KMS12PE (obtained from JCRB Cell Bank) having the increased expression of MYC, and a negative control leukemia cell line K562 (obtained from JCRB Cell Bank) in which no MYC gene rearrangement was seen.
(§2) The CAL-1, PMDC05, or KMN12PE cells at 4000 cells/well or K562 at 1000 cells/well were inoculated to 96-well cell culture plates. […] The cell survival rates were measured using a cell growth assay kit using CTG reagent (Cell Titer-Glo, manufactured by Promega Corp.).
(§3) Aurora kinase inhibitors, albeit not agents directly suppressing MYC expression, were analyzed for their effects in the present invention. […] Each inhibitor was added from 1 nm to 10000 nM to the medium of the cells of each line. 48 hours later, the survival rates of these cells were analyzed (FIG. 10).
(§4) Each inhibitor was added in the concentration of 1 nM to 10000 nM to the 4 cell lines described above. The survival rates of these cells were analyzed 48 hours later (FIG. 11).

[2] = system: BPDCN cell line CAL-1 (MYC+BPDCN); experiment: Cell survival rate (Cell Titer-Glo cell growth assay), CAL-1; conditions: for survival rate of the CAL-1 cell line: CAL-1, 48 hours after addition of the BET bromodomain-selective inhibitor
Description: as §1, §2, §3, §4

[3] = system: PARP cleavage in PMDC05 cells; experiment: Western blot for PARP cleavage after JQ1, PMDC05; conditions: PMDC05, JQ1 for 24 hours, FIG. 9
Description: (§5) The primary antibody used was anti-cMyc rabbit monoclonal antibody (manufactured by Abcam plc) and an anti-GAPDH mouse monoclonal antibody (manufactured by Merck Millipore) as control. The secondary antibody used was a HRP-labeled anti-rabbit IgG antibody (donkey, manufactured by Amersham Biosciences Corp.). SuperSignal West Femto Maximum Sensitivity Substrate (manufactured by Pierce/Thermo Fisher Scientific Inc.) was used for detection.
(§6) As mentioned above, it was shown that the cell growth was suppressed by the addition of the BET bromodomain-selective inhibitors to a medium. Next, analysis was conducted on a mechanism underlying the suppression of the cell growth. JQ1 was added to CAL-1, PMDC05, KMS12PE, and K562 cells. Twenty-four hours later, the cells were collected and analyzed by Western blot for MYC expression and PARP cleavage serving as an index for cell death by apoptosis. An anti-PARP antibody was obtained from Cell Signaling Technology, Inc.

[4] = system: MYC expression and PARP cleavage in KMS12PE cells; experiment: Western blot for MYC expression and PARP cleavage after JQ1, KMS12PE; conditions: 400 nM JQ1 for 24 hours, compared with untreated cells, FIG. 9
Description: as §5, §6

[5] = system: MYC expression in CAL-1 cells; experiment: MYC expression over time by immunostaining, CAL-1; conditions: FIG. 7
Method: The ratios of MYC-positive cells at the time of JQ1 addition (0 hours), 6 hours later, 24 hours later, and 48 hours later were approximately 95%, 60%, 15%, and 0%, respectively. Good correlation was observed between decrease in cell survival rate and decrease in MYC expression level.

[6] = system: PARP cleavage in K562 cells; experiment: Western blot for PARP cleavage after JQ1, K562; conditions: K562, JQ1 for 24 hours, FIG. 9
Description: as §5, §6

[7] = system: MYC expression and PARP cleavage in CAL-1 cells; experiment: Western blot for MYC expression and PARP cleavage after JQ1, CAL-1; conditions: CAL-1, 400 nM JQ1 for 24 hours, compared with untreated cells, FIG. 9
Description: as §5, §6

[8] = system: negative control leukemia cell line K562; experiment: Cell survival rate (Cell Titer-Glo cell growth assay), K562; conditions: 48 hours, JQ1 at 1000 nM or more, FIG. 6
Description: as §1, §2

[9] = inhibitor added at a high concentration

## Cc1sc2c(c1C)C(c1ccc(Cl)cc1)=N[C@@H](CC(=O)Nc1ccc(O)cc1)c1nnc(C)n1-2 [OTX015]
[1]; [9]
  survival rate of PMDC05: high survival rate
[2]; FIG. 6
  survival rate of the CAL-1 cell line: sharply decreased

## COc1cc2c(cc1-c1c(C)noc1C)ncc1[nH]c(=O)n([C@H](C)c3ccccn3)c12 [I-BET151]
[1]; [9]
  survival rate of PMDC05: high survival rate
[2]; FIG. 6
  survival rate of the CAL-1 cell line: sharply decreased

## COc1cc(Nc2ncc3c(n2)-c2ccc(Cl)cc2C(c2c(F)cccc2OC)=NC3)ccc1C(=O)O [alisertib]
[2]; 1 nM to 10000 nM, 48 hours, FIG. 10
  growth suppressive or inhibitory effect on CAL-1 compared with PMDC05 cells: higher growth suppressive or inhibitory effect
[2]; summary statement in the description
  growth suppression of BPDCN cell lines that exhibited MYC expression: effective

## Cc1sc2c(c1C)C(c1ccc(Cl)cc1)=N[C@@H](CC(N)=O)c1nnc(C)n1-2 [CPI203]
[1]; [9]
  survival rate of PMDC05: high survival rate
[2]; FIG. 6
  survival rate of the CAL-1 cell line: sharply decreased

## COc1ccccc1S(=O)(=O)Nc1ccc2c(c1)CN(C)C(=O)N2 [PFI-1]
[1]; [9]
  survival rate of PMDC05: high survival rate
[2]; FIG. 6
  survival rate of the CAL-1 cell line: sharply decreased

## Cc1sc2c(c1C)C(c1ccc(Cl)cc1)=N[C@@H](CC(=O)OC(C)(C)C)c1nnc(C)n1-2 [JQ1]
[3]
  increased PARP cleavage: not observed
[1]; JQ1 added at a high concentration of 1000 nM or more
  survival rate of PMDC05: high survival rate
[4]
  MYC expression (Western blot): markedly decreased
  expression of cleaved-PARP (index for cell death by apoptosis): increased
[5]; CAL-1, 400 nM JQ1, 6 hours later
  ratio of MYC-positive cells: ~60%
[5]; CAL-1, 400 nM JQ1, 24 hours later
  ratio of MYC-positive cells: ~15%
[5]; CAL-1, 400 nM JQ1, 48 hours later
  ratio of MYC-positive cells: ~0%
[5]; CAL-1, 400 nM JQ1, at the time of JQ1 addition (0 hours)
  ratio of MYC-positive cells: approximately 95%
[2]; CAL-1, 48 hours after addition, 6.25 nM to 6400 nM, FIG. 6
  concentration above which the survival rate of CAL-1 was rapidly decreased: exceeded 150 nM
[6]
  increased PARP cleavage: not observed
[7]
  MYC expression (Western blot): markedly decreased
  expression of cleaved-PARP (index for cell death by apoptosis): increased
[8]
  survival rate of K562: high survival rate

— patent US20230323475A1, “TEST METHOD, OF DIVIDING BLASTIC PLASMACYTOID DENDRITIC CELL NEOPLASM (BPDCN) INTO SUBTYPES” (JAPANESE FOUNDATION FOR CANCER RESEARCH, priority 2016, published 2023)
